Laboratory results reported in PMC6273125, “Antioxidant Activity of 3-[N-(Acylhydrazono)ethyl]-4-hydroxy-coumarins” (Molecules, 2016).

How the values were obtained:
[1] = Inhibition of linoleic acid lipid peroxidation induced by AAPH; conditions: pH 7.4, 37 °C
Text: AAPH induced linoleic acid oxidation is based on the inhibition of lipid oxidation and provides a measure of how efficiently antioxidants protect against lipid oxidation in vitro. Oxidation of exogenous linoleic acid by a thermal free radical producer (AAPH) is followed by UV spectrophotometry in a highly-diluted sample [36, 42].
Production of conjugated diene hydroperoxide by oxidation of linoleic acid in an aqueous dispersion is monitored at 234 nm. 2,2′-Azobis(2-amidinopropane) dihydrochloride (AAPH) is used as a free radical initiator. Ten microliters of the 16 mM linoleic acid sodium salt solution was added to the UV cuvette containing 930 µL of […] phosphate buffer, pH 7.4 prethermostated at 37 °C. The oxidation reaction was initiated at 37 °C under air by the addition of 50 μL of 40 mM AAPH solution. Oxidation was carried out in the presence of aliquots (10 μL) of the tested coumarins. In the assay without antioxidant, lipid peroxidation was measured in the presence of the same level of DMSO. The rate of oxidation at 37 °C was monitored by recording the increase in absorption at 234 nm caused by conjugated diene hydroperoxides.

[2] = target: T1, soybean lipoxygenase (LOX) (Glycine max, UniProt P08170); experiment: In vitro inhibition of soybean lipoxygenase, UV-absorbance-based enzyme assay; format: biochemical; conditions: soybean lipoxygenase, sodium linoleate, Tris buffer pH 9
T1 construct: purchased Sigma Chemical, Co. (St. Louis, MO, USA)
T1 sequence (P08170 1-839): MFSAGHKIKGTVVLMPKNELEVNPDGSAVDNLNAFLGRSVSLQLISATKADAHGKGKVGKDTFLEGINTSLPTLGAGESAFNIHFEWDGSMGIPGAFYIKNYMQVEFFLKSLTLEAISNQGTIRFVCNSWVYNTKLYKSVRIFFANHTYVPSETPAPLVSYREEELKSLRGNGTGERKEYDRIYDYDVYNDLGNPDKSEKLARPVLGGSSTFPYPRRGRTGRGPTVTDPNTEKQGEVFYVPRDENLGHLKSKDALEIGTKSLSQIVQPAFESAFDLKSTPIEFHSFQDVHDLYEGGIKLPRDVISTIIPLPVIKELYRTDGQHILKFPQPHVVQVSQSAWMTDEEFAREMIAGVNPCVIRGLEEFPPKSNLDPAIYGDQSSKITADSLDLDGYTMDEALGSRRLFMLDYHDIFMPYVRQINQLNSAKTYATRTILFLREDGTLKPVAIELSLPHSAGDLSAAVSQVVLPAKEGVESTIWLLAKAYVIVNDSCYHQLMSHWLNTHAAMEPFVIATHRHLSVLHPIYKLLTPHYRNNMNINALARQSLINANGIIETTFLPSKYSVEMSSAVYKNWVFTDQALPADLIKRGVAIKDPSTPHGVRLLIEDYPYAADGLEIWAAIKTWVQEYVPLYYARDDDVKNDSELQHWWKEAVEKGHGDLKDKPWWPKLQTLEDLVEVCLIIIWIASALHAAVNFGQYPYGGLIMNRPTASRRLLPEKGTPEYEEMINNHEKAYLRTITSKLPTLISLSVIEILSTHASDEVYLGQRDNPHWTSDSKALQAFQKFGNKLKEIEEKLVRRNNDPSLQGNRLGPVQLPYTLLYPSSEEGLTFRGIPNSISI
Experimental: The tested compounds dissolved in DMSO were incubated at room temperature with sodium linoleate (100 µL) and 200 µL of enzyme solution (1/9 × 10^−4 w/v in saline) in Tris buffer pH 9. The conversion of sodium linoleate to 13-hydroperoxylinoleic acid at 234 nm was recorded and compared with the appropriate standard inhibitor.

[3] = Reducing activity of the DPPH stable free radical (RA%); conditions: DPPH 0.05 mM in ethanol
Text: It is well known that the interaction of the synthesized 3-acetyl-4-hydroxycoumarin N-acylhydrazones 2 with the stable free radical DPPH indicates their radical scavenging ability in an iron-free system. […] Considering the antioxidant activity of 3-acetyl-4-hydroxy coumarin (1) it seems to be higher than the hydrazone derivatives 2a–l in both concentrations and in relation with the time and it is correlated with the presence of 3-acetyl and 4-hydroxy groups in the lactone ring and the possibility of tautomers (A–D) formation as shown in Scheme 2. It has been reported that 3-acetyl-4-hydroxycoumarin mainly exists in endocyclic enol form (B) in polar solvents (methanol, ethanol) and it is well known that enols show antioxidant activity e.g., it has been reported that enolic and phenolic hydroxyl groups is beneficial for curcumin to protect erythrocytes against hemin-induced hemolysis and to protect DNA against AAPH-induced oxidation. The lower results of hydrazones 2a–l, are correlated with their stereochemistry which influence their interaction with DPPH.
To an ethanolic solution of DPPH (0.05 mM) in absolute ethanol the new coumarin derivatives dissolved in DMSO were added (final concentration 50 and 100 µM). The mixture was shaken vigorously and allowed to stand for 20 min or 60 min; absorbance at 517 nm was determined spectrophotometrically against the blank and the percentage of reducing activity (RA) was calculated by the formula: RA% = [(A0 − A1)/A0] × 100 where A0 is the absorbance of blank and A1 is the absorbance of the reaction mixture.

[4] = set-up: method as in PMID 1322662; conditions: cited from earlier work

CC(=NNC(=O)c1ccccc1[N+](=O)[O-])c1c(O)c2ccccc2oc1=O [2l, 3-{N-[(2′-Nitrobenzoyl)hydrazono]ethyl}-4-hydroxycoumarin]
LP 60 s, 100 μM (% inhibition of LP induced by AAPH) [1]: 95 ± 6.2% | IC50 [2]: 35 ± 0.2 µM | RA%, 50 μM, 20 min ([3]; compound 50 μM, 20 min): 6 ± 0.3% | RA%, 50 μM, 60 min ([3]; compound 50 μM, 60 min): 10 ± 0.2% | RA%, 100 µM, 20 min ([3]; compound 100 µM, 20 min): 27 ± 2.2% | RA%, 100 μM, 60 min ([3]; compound 100 μM, 60 min): 29 ± 1.0% | melting point: 219 °C

O=c1cc(O)c2ccccc2o1 [4-hydroxy coumarin]
antioxidant activity [4]: not found to present any antioxidant activity
